{
  "source": "patent US20240199618A1",
  "about": "“NOVEL N-ACYL-[3-SUBSTITUTED]-[8-SUBSTITUTED]-5,6-DIHYDRO-[1,2,4]TRIAZOLO[4,3-a]PYRAZINES AS SELECTIVE NK-3 RECEPTOR ANTAGONISTS, PHARMACEUTICAL COMPOSITION, METHODS FOR USE IN NK-3 RECEPTOR-MEDIATED DISORDERS” (Ogeda SA, priority 2013, published 2024)",
  "key": {"human NK-3 receptor [1]": {"target": "T1, human NK-3 receptor (Homo sapiens (Human), UniProt P29371)", "T1 sequence (P29371 whole entry)": "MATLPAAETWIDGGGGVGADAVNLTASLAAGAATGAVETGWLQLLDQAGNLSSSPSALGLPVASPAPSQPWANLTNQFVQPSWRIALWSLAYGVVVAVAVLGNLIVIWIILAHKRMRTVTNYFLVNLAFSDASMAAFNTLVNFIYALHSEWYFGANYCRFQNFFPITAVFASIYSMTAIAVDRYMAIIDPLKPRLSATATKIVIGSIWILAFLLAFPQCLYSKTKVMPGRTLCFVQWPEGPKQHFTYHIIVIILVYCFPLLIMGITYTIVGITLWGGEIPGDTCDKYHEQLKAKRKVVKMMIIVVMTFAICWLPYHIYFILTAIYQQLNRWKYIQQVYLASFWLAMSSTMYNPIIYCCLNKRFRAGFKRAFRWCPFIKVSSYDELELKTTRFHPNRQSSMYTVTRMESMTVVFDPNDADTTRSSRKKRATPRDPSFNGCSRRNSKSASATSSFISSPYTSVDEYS", "test": "Aequorin functional assay with human NK-3 receptor (antagonist testing vs NKA)", "type": "cell-based", "settings": "CHO cells, NKA at EC80 (3 nM); read-out: Functional assay: Aequorin assay with human NK-3 receptor hNK-3-AEQ (antagonist IC50)", "in_short": "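CHO cells co-expressing human NK-3 receptor and apoaequorin were pre-incubated 3 min with compound, then challenged with NKA at EC80 (3 nM). Coelenterazine-dependent luminescence was integrated over 90 s, and antagonism was derived from concentration-dependent inhibition of the calcium response.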"}, "plasma testosterone": {"tested_on": "plasma testosterone", "test": "Plasma testosterone in gonad intact male rats", "type": "in vivo, rat", "settings": "3 mg/kg oral, vs vehicle, FIG. 1", "procedure": "Effect of Compounds of the Invention on Plasma Testosterone in Gonad Intact Male Rats\nThe study was designed to evaluate the effect of compounds of the invention on testosterone circulating levels following oral administration at 3 mg/kg on SD gonad intact male rats.\nBriefly the experimental methods used for this study were as follows:\nTwo groups of non-fasted rats (male, Sprague-Dawley, 200 to 225 g; n=4 rats/group) with jugular vein cannulation, were dosed via a single oral administration of compounds of the invention at 3 mg/kg. The control group was dosed with the vehicle. Compounds of the invention were prepared in a dose formulation of pyrogen-free water with 0.5% methylcellulose. Blood samples were collected via the catheter implanted in the jugular vein at pre-determined intervals using EDTA-3K as anti-coagulant. Samples were chilled and rapidly processed by centrifugation to obtain corresponding plasma samples. Testosterone hormone levels were determined by RIA performed on plasma samples collected for all the groups at 5 minutes before administration (basal time), and at 45, 90, 150, 300, 480 minutes and 24 hours after dosing."}, "human NK-1 receptor": {"target": "human NK-1 receptor (Homo sapiens (Human), UniProt P25103)", "sequence (P25103 whole entry)": "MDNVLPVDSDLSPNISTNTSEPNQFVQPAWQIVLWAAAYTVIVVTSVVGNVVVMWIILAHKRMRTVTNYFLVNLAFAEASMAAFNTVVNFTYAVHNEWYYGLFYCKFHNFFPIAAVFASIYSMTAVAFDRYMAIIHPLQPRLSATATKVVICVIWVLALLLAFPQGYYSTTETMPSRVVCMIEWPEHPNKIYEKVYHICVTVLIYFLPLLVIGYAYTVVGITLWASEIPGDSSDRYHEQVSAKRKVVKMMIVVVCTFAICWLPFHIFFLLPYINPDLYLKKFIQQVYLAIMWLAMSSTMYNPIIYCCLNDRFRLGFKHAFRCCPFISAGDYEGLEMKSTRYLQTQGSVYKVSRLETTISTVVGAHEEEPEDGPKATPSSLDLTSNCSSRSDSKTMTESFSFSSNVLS", "test": "Selectivity assay: [3H] substance P binding, human NK-1 receptor", "settings": "2 nM [3H] substance P, CHO membranes; read-out: hNK-1 (Ki)", "in_short": "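Competition binding on membranes from CHO cells expressing human NK-1 receptor, using 2 nM [3H] substance P in 50 mM Tris/5 mM MnCl2/150 mM NaCl/0.1% BSA, pH 7.4, with increasing compound concentrations. Incubated 60 min at 25 °C; bound radioactivity measured after filtration.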"}, "human NK-3 receptor [2]": {"target": "T1, human NK-3 receptor", "test": "3H-SB222200 binding competition assay with human NK-3 receptor", "in_short": "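Membranes from CHO cells stably expressing the receptor were incubated with 5 nM 3H-SB222200 and varying compound concentrations in HEPES 25 mM/NaCl 0.1 M/CaCl2 1 mM/MgCl2 5 mM/BSA 0.5%/saponin 10 μg/ml, pH 7.4. Bound radioligand was quantified as membrane-associated radioactivity after filtration.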"}, "plasma protein": {"tested_on": "plasma protein", "test": "Determination of plasma protein binding (equilibrium dialysis, RED)", "type": "in vitro ADME", "settings": "4 hours at 37° C."}},
  "note": "Read-outs that look alike come from different tables or passages of the source.",
  "data": [
    {"smiles": "Cc1nsc(-c2nnc3n2CCN(C(=O)c2ccc(F)cc2)[C@@H]3C)n1", "note": "[Compound 5, (R)-(4-fluorophenyl)(8-methyl-3-(3-methyl-1,2,4-thiadiazol-5-yl)-5,6-dihydro-[1,2,4]triazolo[4,3-a]pyrazin-7(8H)-yl)methanone]", "values": [
      {"measurement": "IC50", "setting": "human NK-3 receptor [1]", "result": 18, "unit": "nM"},
      {"measurement": "plasma testosterone level", "setting": "plasma testosterone", "result": "significantly suppressed"},
      {"measurement": "Ki", "setting": "human NK-1 receptor", "result": "> 30000", "unit": "nM"},
      {"measurement": "Ki", "setting": "human NK-3 receptor [2]; Table 2, 5 nM 3H-SB222200, CHO membranes, read-out: Competitive binding assay with human NK-3 receptor hNK-3 (Ki)", "result": 23, "unit": "nM"},
      {"measurement": "Ki", "setting": "human NK-3 receptor [2]; Table 3 (selectivity table), read-out: hNK-3 (Ki)", "result": 23, "unit": "nM"},
      {"measurement": "Exposure (% rPPB), bound drug fraction to plasma protein", "setting": "plasma protein", "result": 22, "unit": "%"}
    ]}
  ]
}
